The values below come from patent US10792289B2 (Horizon Orphan LLC, priority 2009, dated 2020).

The assay relates to stable CF patients. Briefly: Phase 1b study: pulmonary function tests (FEV1). In kind it is in vivo, human. The protocol: All patients had had P. aeruginosa cultured from sputum within the previous 24 months and at the screening visit. Study drug was administered twice daily for up to 14 days at three doses by aerosol using a PART eFlow device. Respirable delivered doses (RDD) were approximately 40 mg, 80 mg, and 120 mg per treatment, corresponding to loaded doses of 78 mg, 175 mg, and 260 mg, respectively. Thus, the estimated total daily RDDs were 80 mg, 160 mg, and 240 mg. Study drugs were administered at 30 mg/ml (for 40 mg dose) or 50 mg/ml (for 80 mg and 120 mg doses).
In Table 3, relative change from baseline (CBG) was calculated as ‘Result’ FEV1 minus ‘Baseline’ FEV1 divided by ‘Baseline’ FEV1.

Where [1] appears, read: 80 mg RDD BID, Day 1 predose baseline.
[2] abbreviates: 120 mg RDD BID, Day 1 predose baseline.

On to `C[C@H]1COc2c(N3CCN(C)CC3)c(F)cc3c(=O)c(C(=O)O)cn1c23` [Levofloxacin, levofloxacin], for which the “FEV1, median” value came out at 2.30 L (40 mg RDD BID, Day 1 predose baseline); 2.32 L (40 mg RDD BID, Day 2 predose); 2.30 L (40 mg RDD BID, Day 7); 2.30 L (40 mg RDD BID, Day 14 predose); 2.07 L (40 mg RDD BID, Day 21/ET); 1.95 L under setting [1]. The “FEV1, median” value by setting is: (80 mg RDD BID, Day 2 predose) 2.00 L; (80 mg RDD BID, Day 7) 2.08 L; (80 mg RDD BID, Day 14 predose) 2.10 L; (80 mg RDD BID, Day 21/ET) 2.04 L; under setting [2], 2.23 L; (120 mg RDD BID, Day 2 predose) 2.38 L. In addition, the “FEV1, median” value was 2.40 L (120 mg RDD BID, Day 7); 2.57 L (120 mg RDD BID, Day 14 predose); 2.48 L (120 mg RDD BID, Day 21/ET). The “FEV1, mean” value under setting [1] was 2.06 L; the “FEV1, mean” value (80 mg RDD BID, Day 21/ET) was 2.03 L; the “FEV1, mean” value under setting [2] is reported as 2.56 L; the “FEV1, mean” value (120 mg RDD BID, Day 2 predose) is 2.73 L; the “FEV1, mean” value (120 mg RDD BID, Day 7) was determined as 3.07 L; the “FEV1, mean” value (120 mg RDD BID, Day 14 predose) is on record as 3.12 L. Moreover, the “FEV1, mean” value (120 mg RDD BID, Day 21/ET) stood at 2.75 L.
